The values that follow come from ChEMBL document CHEMBL1155585, “Cypellocarpins A-C, phenol glycosides esterified with oleuropeic acid, from Eucalyptus cypellocarpa” (J Nat Prod, 2000).

The species named for series [1] is Mus musculus. The series is described as follows: Antitumor activity against (+/-)-(E)-4-methyl-2-[(E)-hydroxyimino]-6-methoxy-5-nitro-3-hexenamide/TPA-induced carcinogenesis in mouse assessed as reduction in number of tumor bearing mouse at 50 molar ratio/TPA after 10 weeks relative to control. In kind it is functional. Details: scale not given: the % may be the effect or the level left.

The nature of series [2]: Cytotoxicity against human Raji cells assessed as cell viability at 1000 molar ratio/TPA. Format: cell-based. As to conditions: read-out: Activity.
Series [3] is filed under the species Mus musculus. The series is described as follows: Antitumor activity against (+/-)-(E)-4-methyl-2-[(E)-hydroxyimino]-6-methoxy-5-nitro-3-hexenamide/TPA-induced carcinogenesis in mouse assessed as reduction in number of tumor bearing mouse at 50 molar ratio/TPA after 20 weeks relative to control. In kind it is functional. Also on record: scale not given: the % may be the effect or the level left.

For the molecule `Cc1cc(=O)c2c(O)cc(O[C@@H]3O[C@H](COC(=O)C4=CC[C@H](C(C)(C)O)CC4)[C@@H](O)[C@H](O)[C@H]3O)cc2o1` [CYPELLOCARPA C], the Activity in the series listed under Mus musculus [1] came out at 30%. Besides, in series [2], the viability at 1000 molar ratio/TPA was determined as 70%.

Turning to `CC1(O)CC(=O)c2c(O)cc(O[C@@H]3O[C@H](COC(=O)C4=CC[C@H](C(C)(C)O)CC4)[C@@H](O)[C@H](O)[C@H]3O)cc2O1` (stereo partly drawn) [CYPELLOCARPIN B], the Activity in the series filed under Mus musculus [3] was 58%; in the series listed under Mus musculus [1], 30%. Also, the viability at 1000 molar ratio/TPA in series [2] turned out to be 70%.

As for `CC(C)(O)[C@H]1CC=C(C(=O)OC[C@H]2O[C@@H](Oc3cc(C(=O)O)cc(O)c3O)[C@H](O)[C@@H](O)[C@@H]2O)CC1` [CYPELLOCARPIN A], the viability at 1000 molar ratio/TPA in series [2] is 70%.

Regarding `Cc1c(O[C@@H]2O[C@H](CO)[C@@H](O)[C@H](O)[C@H]2O)c(C=O)c(O)c2c1OC(C)(C)C=C2`, the Activity in the series filed under Mus musculus [1] was determined as 30%. Further, the viability at 1000 molar ratio/TPA in series [2] was 60%.
